Patent publication US10988481B2, “Potent and selective mu opioid receptor modulators” (VIRGINIA COMMONWEALTH UNIVERSITY, priority 2016, dated 2021)
Read-outs that look alike come from different tables or passages of the source.

Tests used:
KOR = KOR (Homo sapiens (Human), UniProt P41145); test: Competition binding assay at KOR ([3H]DPN, CHO cell membranes)
Procedure: (§1) Chinese hamster ovary (CHO) cells expressing MOR, KOR and DOR were cultured for use in this assay. The culture media used for MOR CHO cells contained 500 mL DMEM/F12 media, 10% FBS, 1% penicillin/streptomycin, and 2.75 mL G418. The DOR and KOR CHO cells were cultured in the same media except that 5% FBS was used instead of 10%. The cells are allowed to grow until they are 80-95% confluent after which they are split. The cells are continuously cultured and split until there were sufficient cells for the studies.
(§2) Once the cells reached confluence, cells were harvested, centrifuged at 1000×g for 10 minutes, and suspended in membrane buffer (50 mM Tris, 3 mM MgCl2, and 1 mM EGTA, pH 7.4). The cells were then homogenized, centrifuged at 50000×g for 10 minutes, and re-homogenized in membrane buffer. A Bradford assay was conducted to determine membrane protein concentrations, and membrane protein preps (3 μg/aliquot) were stored at −80° C.
(§3) The competition binding assay was conducted to determine the affinity and selectivity of the synthesized compounds to MOR over KOR and DOR. The Kd and Bmax values for [^3H]NLX at MOR and [^3H]DPN at KOR had been determined previously. […] [^3H]NLX was used to label MOR whilst [^3H]DPN was used to label both DOR and KOR. The potency of the new compounds in displacing the specific binding of the radioligand was determined by linear regression analysis of Hill plots. […] The IC50 values were determined and converted to Ki values using the Cheng—Prusoff equation (Rosenblum, A. et al. Exp Clin Psychopharmacol. 2008, 16 (5), 405-416).

DOR = DOR (Homo sapiens (Human), UniProt P41143); test: Competition binding assay at DOR ([3H]DPN, CHO cell membranes)
Chain of DOR (P41143 whole entry, looked up): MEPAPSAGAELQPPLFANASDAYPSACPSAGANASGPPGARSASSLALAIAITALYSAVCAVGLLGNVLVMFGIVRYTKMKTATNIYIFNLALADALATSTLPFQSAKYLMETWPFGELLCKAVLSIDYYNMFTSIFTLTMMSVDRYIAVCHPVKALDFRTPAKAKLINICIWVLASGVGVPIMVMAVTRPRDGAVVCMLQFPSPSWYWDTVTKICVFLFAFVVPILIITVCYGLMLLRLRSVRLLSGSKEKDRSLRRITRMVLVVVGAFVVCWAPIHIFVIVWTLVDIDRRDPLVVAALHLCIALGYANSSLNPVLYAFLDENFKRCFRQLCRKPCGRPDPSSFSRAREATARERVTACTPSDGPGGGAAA
Procedure: as §1, §2, §3

MOR = MOR (Mus musculus, UniProt P42866); assay type: biochemical; conditions: relative to 3 μM DAMGO at MOR
Chain of MOR (P42866 whole entry, looked up): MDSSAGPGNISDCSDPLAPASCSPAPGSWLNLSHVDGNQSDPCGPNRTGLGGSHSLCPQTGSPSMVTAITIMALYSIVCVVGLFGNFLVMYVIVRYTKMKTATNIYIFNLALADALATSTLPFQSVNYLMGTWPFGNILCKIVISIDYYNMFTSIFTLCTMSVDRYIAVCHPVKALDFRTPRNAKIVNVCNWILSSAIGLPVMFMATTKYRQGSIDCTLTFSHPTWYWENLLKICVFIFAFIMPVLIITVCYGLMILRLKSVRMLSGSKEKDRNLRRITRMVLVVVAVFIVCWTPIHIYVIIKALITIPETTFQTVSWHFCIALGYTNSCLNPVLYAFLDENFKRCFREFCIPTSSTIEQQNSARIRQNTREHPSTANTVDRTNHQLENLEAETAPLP
Procedure: The [^35S]GTPγS functional assay was used to determine whether the synthesized compounds are agonists. The agonist's activity of the compounds was measured relative to 3 μM DAMGO at MOR. In this assay, upon receptor activation due to agonist binding, [^35S]GTPγS binds to the Gα subunit. Thus, [^35S]GTPγS replaces endogenous GTP and since the γ-thiophosphate bond is resistant to hydrolysis by GTPase, [^35S]GTPγS labelled Gα subunits accumulate and can be quantified by measuring the amount of incorporated [^35S].
The Bradford assay was then conducted to determine the concentration of the membrane protein using BSA as the standard. Suitable dilutions of membrane protein, [^35S]GTPγS), cold GTPγS, DAMGO and GDP were made in TME. The desired amount of the protein per tube was 10 μg. All the test-tubes were vortexed and incubated in the shaking water bath at 30° C. for 90 minutes, after which bound radioligand was filtered and rinsed three times with cold Tris buffer. The filtered bound radioligand was then transferred into scintillation tubes with 4 mL of scintillation fluid and radioligand was quantified. However, counting was delayed for 9 hrs to allow the radioactivity to enter the solution. Percent DAMGO stimulation was defined as (net stimulated binding of test compound/net stimulated binding of DAMGO)×100%. The normalized data were subjected to nonlinear regression analysis to determine EC50 and Emax values using Prism 6.0 software (GraphPad Software, San Diego, Calif.). The assay was performed in triplicate and repeated at least three times.

Swiss Webster mice = test: Warm-water tail immersion assay, blockage of the antinociceptive effect of morphine; conditions: for Blockage of morphine-mediated antinociception: 10 mg/kg s.c. 5 min before morphine 10 mg/kg, tested 20 min after morphine; for AD50 (95% CL), opioid antagonist effect: dose-dependent study against morphine, s.c.
Procedure: FIG. 1A-D. Warm-water tail immersion assay in mice (n=5) at 56±0.1° C. All tested compounds were administered subcutaneously (s.c.). […] Compounds (10 mg/kg) were injected at Time 0. Twenty minutes after injection, tail flick was assessed with hot water. […] Tested compounds (10 mg/kg) were injected at Time 0. Five minutes later, morphine (10 mg/kg) was administered. Twenty minutes after morphine injection, tail flick was tested using hot water.
(§4) For the in vivo studies, male Swiss Webster mice were used for both the warm-water immersion and opioid withdrawal assays. The mice weighed 23-35 g and were housed five to a cage in animal care quarters maintained at 22° C. on a 12 hour light-dark cycle with food and water available ad libitum. The mice were transferred to the test room and the tests were then conducted 18 hours later. Protocols and procedures were approved by the Institutional Animal Care and Use Committee at Virginia Commonwealth University Medical Center and complied with the recommendations of the International Association for the Study of Pain.
Each indole analogue of naltrexamine was tested for its ability to produce antinociception and/or to antagonize the antinociceptive effects of morphine in mice using the warm-water tail immersion assay described by Coderre and Rollman. The a water bath temperature was maintained at 56±0.1° C. The baseline latency (control) was determined before injecting the compounds into the mice. […] To test for agonism, the tail immersion was conducted 20 min (time that morphine effect starts to peak) after injecting the indole analogues of 6α/β-naltrexamine. To prevent tissue damage, a 10 s maximum cut off time was imposed. Antinociceptive response was calculated as the percentage maximum possible effect (% MPE), where % MPE=[(test−control)/(10−control)]×100. In the antagonism study, the 6α/β-naltrexamine derivatives were given 5 min before morphine. The tail immersion test was conducted 20 min after giving morphine. % MPE was calculated for each mouse using at least five mice per drug. AD50 values were calculated using the least-squares linear regression analysis followed by calculation of 95% confidence interval by Bliss method. A higher % MPE indicates a stronger antinociception effect by the ligand.

morphine-pelleted mice = test: Opioid withdrawal assay in chronic morphine-exposed (pelleted) mice
Procedure: as §4
A 75 mg morphine pellet was implanted in to the base of the neck of the mice and the mice were then given time to recover in their home cages before the test was conducted. The mice were then allowed for 30 min habituation to an open-topped, square, clear Plexiglas observation chamber (26×26×26 cm^3) with lines partitioning the bottom into quadrants before they were given antagonist. All drugs and test compounds were administered subcutaneously (s.c.). […] Withdrawal commenced within 3 min after antagonist administration. Escape jumps, paw tremors and wet dog shakes were quantified by counting their occurrences over 20 min for each mouse using five mice per drug. The data is given as the mean±SEM. One-way ANOVA followed by the post hoc Dunnett test were performed to assess significance using the Prism 6.0 software.

[1] = [3H]DPN, KOR CHO membranes, read-out: Ki (nM) ± SEM κ
[2] = [3H]DPN, DOR CHO membranes, read-out: Ki (nM) ± SEM δ
[3] = 1 mg/kg s.c., morphine-pelleted mice, counted over 20 min, mean±SEM

Row | SMILES | Emax(% DAMGO) ± SEM (MOR) [% DAMGO] | Ki (KOR; [1]) [nM] | Ki (DOR; [2]) [nM] | further results
1 | Cl.O=C(N[C@@H]1CC[C@@]2(O)[C@H]3Cc4ccc(O)c5c4[C@@]2(CCN3CC2CC2)[C@H]1O5)c1ccc2[nH]ccc2c1 [Compound 13, 17-Cyclopropylmethyl-3,14β-dihydroxy-4,5α-epoxy-6β-(indole-5-carboxamido)morphinan] | 20.15 ± 4.37 | – | – | Ki (KOR): 0.512 ± 0.038 nM; Ki (DOR): 17.7 ± 4.78 nM
2 | Cl.O=C(CCCc1c[nH]c2ccccc12)N[C@@H]1CC[C@@]2(O)[C@H]3Cc4ccc(O)c5c4[C@@]2(CCN3CC2CC2)[C@H]1O5 [Compound 18, 17-Cyclopropylmethyl-3,14β-dihydroxy-4,5α-epoxy-6β-[4-(indol-3-yl)butanamido)morphinan] | 36.29 ± 4.11 | 0.175 ± 0.037 | 25.3 ± 4.34 | Blockage of morphine-mediated antinociception (Swiss Webster mice): effectively blocked morphine-mediated antinociception; AD50 (95% CL), opioid antagonist effect (Swiss Webster mice): 9.64 (3.17-29.29) mg/kg
3 | Cl.O=C(CCCc1c[nH]c2ccccc12)N[C@H]1CC[C@@]2(O)[C@H]3Cc4ccc(O)c5c4[C@@]2(CCN3CC2CC2)[C@H]1O5 [Compound 9, 17-Cyclopropylmethyl-3,14β-dihydroxy-4,5α-epoxy-6α-[4-(indol-3-yl)butanamido)morphinan] | 48.36 ± 5.17 | 0.149 ± 0.033 | 6.73 ± 0.396 | –
4 | O=C(N[C@@H]1CC[C@@]2(O)[C@H]3Cc4ccc(O)c5c4[C@@]2(CCN3CC2CC2)[C@H]1O5)c1c[nH]c2ccccc12 [Compound 11, 17-Cyclopropylmethyl-3,14β-dihydroxy-4,5α-epoxy-6β-(indole-3-carboxamido)morphinan] | – | – | – | Ki (KOR): 0.16 ± 0.005 nM; Ki (DOR): 7.17 ± 1.23 nM
5 | Cl.O=C(N[C@H]1CC[C@@]2(O)[C@H]3Cc4ccc(O)c5c4[C@@]2(CCN3CC2CC2)[C@H]1O5)c1cc2ccccc2[nH]1 [Compound 1, 17-Cyclopropylmethyl-3,14β-dihydroxy-4,5α-epoxy-6α-(indole-2-carboxamido)morphinan] | 52.0 ± 13.5 | 0.926 ± 0.125 | 14.2 ± 2.78 | –
6 | Cl.O=C(N[C@H]1CC[C@@]2(O)[C@H]3Cc4ccc(O)c5c4[C@@]2(CCN3CC2CC2)[C@H]1O5)c1cccc2[nH]ccc12 [Compound 3, 17-Cyclopropylmethyl-3,14β-dihydroxy-4,5α-epoxy-6α-(indole-4-carboxamido)morphinan] | 28.9 ± 1 | 1.49 ± 0.349 | 9.26 ± 2.83 | –
7 | Cl.O=C(N[C@H]1CC[C@@]2(O)[C@H]3Cc4ccc(O)c5c4[C@@]2(CCN3CC2CC2)[C@H]1O5)c1ccc2[nH]ccc2c1 [Compound 4, 17-Cyclopropylmethyl-3,14β-dihydroxy-4,5α-epoxy-6α-(indole-5-carboxamido)morphinan] | 32.2 ± 1.3 | 3.45 ± 0.994 | 26.7 ± 7.72 | –
8 | Cl.O=C(N[C@H]1CC[C@@]2(O)[C@H]3Cc4ccc(O)c5c4[C@@]2(CCN3CC2CC2)[C@H]1O5)c1ccc2cc[nH]c2c1 [Compound 5, 17-Cyclopropylmethyl-3,14β-dihydroxy-4,5α-epoxy-6α-(indole-6-carboxamido)morphinan] | 27.0 ± 0.31 | 1.63 ± 0.277 | 12.8 ± 3.36 | –
9 | Cl.O=C(CCc1c[nH]c2ccccc12)N[C@@H]1CC[C@@]2(O)[C@H]3Cc4ccc(O)c5c4[C@@]2(CCN3CC2CC2)[C@H]1O5 [Compound 17, 17-Cyclopropylmethyl-3,14β-dihydroxy-4,5α-epoxy-60-[3-(indol-3-yl)propanamido)morphinan] | 40.43 ± 5.28 | 0.387 ± 0.045 | 49 ± 4.72 | Blockage of morphine-mediated antinociception (Swiss Webster mice): effectively blocked morphine-mediated antinociception; AD50 (95% CL), opioid antagonist effect (Swiss Webster mice): 7.30 (3.38-15.74) mg/kg
10 | Cl.O=C(N[C@H]1CC[C@@]2(O)[C@H]3Cc4ccc(O)c5c4[C@@]2(CCN3CC2CC2)[C@H]1O5)c1c[nH]c2ccccc12 [Compound 2, 17-Cyclopropylmethyl-3,14β-dihydroxy-4,5α-epoxy-6α-(indole-3-carboxamido)morphinan] | 35.4 ± 4.8 | 0.984 ± 0.125 | 10.5 ± 2.89 | –
11 | O=C1CC[C@@]2(O)[C@H]3Cc4ccc(O)c5c4[C@@]2(CCN3CC2CC2)[C@H]1O5 [NTX, naltrexone, reference compound] | – | – | – | Escape jumps (morphine-pelleted mice; [3]): 39.0±14.2 times; Paw tremors (morphine-pelleted mice; [3]): 43.4±15.7; Wet-dog shakes (morphine-pelleted mice; [3]): 18.6±1.2 times; Diarrhea (morphine-pelleted mice; 1 mg/kg, morphine pelleted mice (not in placebo pelleted mice)): produced diarrhea
12 | O=C(N[C@@H]1CC[C@@]2(O)[C@H]3Cc4ccc(O)c5c4[C@@]2(CCN3CC2CC2)[C@H]1O5)c1ccc2cc[nH]c2c1 [Compound 14, 17-Cyclopropylmethyl-3,14β-dihydroxy-4,5α-epoxy-6β-(indole-6-carboxamido)morphinan] | – | – | – | Ki (KOR): 0.166 ± 0.012 nM; Ki (DOR): 6.23 ± 0.825 nM
13 | Cl.O=C(CCc1c[nH]c2ccccc12)N[C@H]1CC[C@@]2(O)[C@H]3Cc4ccc(O)c5c4[C@@]2(CCN3CC2CC2)[C@H]1O5 [Compound 8, 17-Cyclopropylmethyl-3,14β-dihydroxy-4,5α-epoxy-6α-[3-(indol-3-yl)propanamido)morphinan] | 41.10 ± 6.54 | 1.36 ± 0.178 | 31.2 ± 8.12 | –
14 | Cl.O=C(Cc1c[nH]c2ccccc12)N[C@H]1CC[C@@]2(O)[C@H]3Cc4ccc(O)c5c4[C@@]2(CCN3CC2CC2)[C@H]1O5 [Compound 7, 17-Cyclopropylmethyl-3,14β-dihydroxy-4,5α-epoxy-6α-[2-(indol-3-yl)acetamido)morphinan] | 33.88 ± 1.43 | 3.13 ± 0.449 | 9.17 ± 2.67 | –
15 | Cl.O=C(N[C@@H]1CC[C@@]2(O)[C@H]3Cc4ccc(O)c5c4[C@@]2(CCN3CC2CC2)[C@H]1O5)c1cccc2[nH]ccc12 [Compound 12, 17-Cyclopropylmethyl-3,14β-dihydroxy-4,5α-epoxy-6β-(indole-4-carboxamido)morphinan] | 15.21 ± 3.13 | – | – | Ki (KOR): 1.94 ± 0.299 nM; Ki (DOR): 45.9 ± 16.3 nM
